Data from PMC10122656, “Siglec-6 mediates the uptake of extracellular vesicles through a noncanonical glycolipid binding pocket” (Nature Communications, 2023).
Several values for one entry are separate records, joined by “and”; a condition that tells them apart may be missing. Equal entries are not always repeated.

Columns and labels:
Assay in all cases: Cell assay (liposome/EV binding, flow cytometry);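 as to liposome binding, fluorescence signal (replicates): AF647 fluorescence intensity from 0.1 mol% AF647–PEG45–DSPE in liposomes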
[1] = tested on: untransfected (UT) CHO cells; type: cell-based, Chinese Hamster; settings: for log10(MFI AF647) of GLL relative to log10(MFI AF647) of the same GLL against UT CHO cells (Fig. 2a): 3 mol% ganglioside liposomes, replicates;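 as to liposome binding, fluorescence signal (replicates): AF647 fluorescence intensity from 0.1 mol% AF647–PEG45–DSPE in liposomes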
Protocol: (§1) Stock lipids (DSPC, Cholesterol, PEG45–DSPE) solutions were prepared by solvating the lipids in chloroform. An appropriate volume of each lipid solution was transferred to a glass test tube to reach the desired mol% of the component. The chloroform was then removed under N2 gas to yield a lipid thin film. Once dry, 100 µL of DMSO was added to the lipid-containing test tube and then the functional lipids (ganglioside, AF647–PEG45–DSPE, Siglec ligand–PEG45–DSPE, pHrodo–PEG45–DSPE, NGL) was added from their respect DMSO stock solution. The lipid mixture was then stored at −80 °C until completely frozen at which point excess DMSO was removed via lyophilization. Dry lipids were then stored at −80 °C until they were extruded. Lipid suppliers can be found in Supplementary Table 4.
(§2) Dry lipids were then hydrated in 1 mL of PBS. The lipids were then sonicated in a bath sonicator in a cycle of 1 min on, 5 min off for a total of five cycles. Liposomes were then extruded using an Avanti mini extruder first using an 800 nm filter and then a 100 nm filter yielding liposomes that were 130 ± 35 nm (Supplementary Table 5) measured using a Malvern Panalytical Zetasizer Nano S. Liposomes were stored at 4 °C.
(§3) 200,000 cells/well were plated into a 96-well U-bottom microplate and centrifuged at 300 × g for 5 min. The cells were then resuspended in 50 µL of 50 µM liposome/50 µg/mL (protein concentration) of EV solution in DMEM F12 5% FBS and incubated at 37 °C for 30 min. Excess liposomes were then removed via centrifuged at 300 × g for 5 min followed by washing the cells with FACS solution. The cells were then resuspended in (1:250 V/V) anti-Siglec-flow buffer (1% V/V FBS, 500 µM, EDTA Hank’s Balanced Salt Solution pH 7.4), solution and left to rest on ice for 30 min. The cells were then centrifuged again at 300 × g for 5 min and the cells were resuspended in FACS buffer solution and were then ready for analysis by flow cytometry. Information regarding antibody clone, catalog number supplier, label isotype, and dilution can be found in Supplementary Table 6. The Siglec-positive cells were gated on for liposome-binding analysis (Supplementary Fig. 1b).
(§4) Flow cytometry measurements were collected on a 5-laser Fortessa X-20 (BD Bioscience). All the resulting data were analyzed using FlowJo (10.5.3) software (BD Biosciences).

CD33 WT CHO cells = molecular target: T1, CD33 WT CHO cells (Homo sapiens, UniProt P20138); type: cell-based; settings: 3 mol% ganglioside liposomes, replicates
T1 construct: expressed in transfected cells
Protocol: as §1, §2, §3, §4

Siglec-8 WT CHO cells = molecular target: T2, Siglec-8 WT CHO cells (Homo sapiens, UniProt Q9NYZ4); type: cell-based; settings: Sig-8 WT; 3 mol% ganglioside liposomes; replicates
T2 construct: expressed in transfected cells
Protocol: as §1, §2, §3, §4

[2] = molecular target: T3, Siglec-10 R119A CHO cells (Homo sapiens, UniProt Q96LC7, R119A); type: cell-based; settings: Sig-10 R119A; 3 mol% ganglioside liposomes; replicates
T3 construct: expressed in transfected cells
T3 sequence (Q96LC7 17-697 R119A): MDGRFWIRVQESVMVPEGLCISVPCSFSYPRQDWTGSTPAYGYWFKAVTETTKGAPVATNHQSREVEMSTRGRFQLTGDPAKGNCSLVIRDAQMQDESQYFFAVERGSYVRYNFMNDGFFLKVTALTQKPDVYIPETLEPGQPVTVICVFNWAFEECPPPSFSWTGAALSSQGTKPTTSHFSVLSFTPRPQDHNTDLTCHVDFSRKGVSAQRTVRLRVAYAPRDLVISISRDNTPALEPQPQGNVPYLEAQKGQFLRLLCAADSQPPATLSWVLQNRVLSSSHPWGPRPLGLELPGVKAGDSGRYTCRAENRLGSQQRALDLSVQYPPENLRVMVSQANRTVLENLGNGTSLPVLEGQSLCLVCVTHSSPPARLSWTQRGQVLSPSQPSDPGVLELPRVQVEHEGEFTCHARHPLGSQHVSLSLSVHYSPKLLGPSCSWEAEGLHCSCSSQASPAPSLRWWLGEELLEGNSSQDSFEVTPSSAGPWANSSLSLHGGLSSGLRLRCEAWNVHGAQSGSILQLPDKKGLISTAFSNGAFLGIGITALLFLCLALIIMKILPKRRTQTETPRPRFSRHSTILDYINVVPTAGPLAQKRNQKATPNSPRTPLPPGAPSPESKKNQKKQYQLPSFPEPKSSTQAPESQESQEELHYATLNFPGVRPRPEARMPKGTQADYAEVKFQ
Protocol: as §1, §2, §3, §4

[3] = molecular target: T4, Siglec-11 R120A CHO cells (Homo sapiens, UniProt Q96RL6, R132A); type: cell-based; settings: Sig-11 R120A; 3 mol% ganglioside liposomes; replicates
T4 construct: expressed in transfected cells
T4 sequence (Q96RL6 28-698 R132A): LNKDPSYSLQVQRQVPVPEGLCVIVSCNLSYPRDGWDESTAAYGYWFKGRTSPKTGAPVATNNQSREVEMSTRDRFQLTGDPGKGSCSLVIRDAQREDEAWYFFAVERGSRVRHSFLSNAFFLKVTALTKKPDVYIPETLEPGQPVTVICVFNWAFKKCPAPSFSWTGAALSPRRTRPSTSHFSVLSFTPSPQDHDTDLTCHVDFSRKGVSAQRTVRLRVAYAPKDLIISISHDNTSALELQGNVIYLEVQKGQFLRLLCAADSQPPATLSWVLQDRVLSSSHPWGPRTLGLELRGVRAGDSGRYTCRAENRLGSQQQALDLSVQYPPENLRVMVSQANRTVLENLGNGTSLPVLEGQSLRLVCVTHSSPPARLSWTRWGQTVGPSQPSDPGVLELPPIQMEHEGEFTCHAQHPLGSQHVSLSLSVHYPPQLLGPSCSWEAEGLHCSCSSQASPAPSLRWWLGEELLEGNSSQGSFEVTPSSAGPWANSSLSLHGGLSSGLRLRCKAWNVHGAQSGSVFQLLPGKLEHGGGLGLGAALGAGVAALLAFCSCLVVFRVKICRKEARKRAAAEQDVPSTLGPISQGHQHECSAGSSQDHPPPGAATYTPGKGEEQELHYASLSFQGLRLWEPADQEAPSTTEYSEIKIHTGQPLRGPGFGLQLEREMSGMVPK
Protocol: as §1, §2, §3, §4

CD33 R119A CHO cells = molecular target: T5, CD33 R119A CHO cells (Homo sapiens, UniProt P20138, R119A); type: cell-based; settings: 3 mol% ganglioside liposomes, replicates
T5 construct: expressed in transfected cells
Protocol: as §1, §2, §3, §4

WT Siglec-1 CHO cells = molecular target: T6, WT Siglec-1 CHO cells (Homo sapiens, UniProt Q9BZZ2); type: cell-based; set-up: GM1 liposome binding to Siglec-1 CHO cells, flow cytometry (Fig. 1b) / Binding of liposomes with increasing ganglioside content against Siglec-1 CHO cells (Fig. 1c) / Liposome binding to Siglec-1-expressing CHO cells in the cell assay (Fig. 1f): unit not given here; settings: for Binding of liposomes with increasing ganglioside content against Siglec-1 CHO cells (Fig. 1c) / log10(MFI AF647) of GLL relative to log10(MFI AF647) of the same GLL against UT CHO cells (Fig. 2a) / Liposome binding to Siglec-1-expressing CHO cells in the cell assay (Fig. 1f): replicates; for log10(MFI AF647) of GLL relative to log10(MFI AF647) of the same GLL against UT CHO cells (Fig. 2a): Sig-1 WT, 3 mol% ganglioside liposomes; for ganglioside content threshold above which GLL binding to Siglec-1 CHO cells decreased: ganglioside titrated in GLLs; for GM1 liposome binding to Siglec-1 CHO cells, flow cytometry (Fig. 1b): 3 mol% GM1 liposomes, technical replicates
T6 construct: expressed in transfected cells
Protocol: as §1, §2, §3, §4

T1 sequence (P20138 18-364): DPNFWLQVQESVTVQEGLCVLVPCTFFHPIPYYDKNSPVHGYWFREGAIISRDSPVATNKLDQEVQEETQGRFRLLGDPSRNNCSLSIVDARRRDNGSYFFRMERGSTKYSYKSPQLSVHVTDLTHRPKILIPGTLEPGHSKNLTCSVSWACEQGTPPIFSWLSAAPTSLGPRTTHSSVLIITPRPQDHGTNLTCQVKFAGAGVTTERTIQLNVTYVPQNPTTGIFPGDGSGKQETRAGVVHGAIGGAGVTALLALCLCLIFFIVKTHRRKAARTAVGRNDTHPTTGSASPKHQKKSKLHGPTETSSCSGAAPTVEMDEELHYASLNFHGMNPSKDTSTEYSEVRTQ
T5 sequence (P20138 18-364 R119A): as the sequence (P20138 18-364) above, with R102A counted along it
T2 sequence (Q9NYZ4 17-499): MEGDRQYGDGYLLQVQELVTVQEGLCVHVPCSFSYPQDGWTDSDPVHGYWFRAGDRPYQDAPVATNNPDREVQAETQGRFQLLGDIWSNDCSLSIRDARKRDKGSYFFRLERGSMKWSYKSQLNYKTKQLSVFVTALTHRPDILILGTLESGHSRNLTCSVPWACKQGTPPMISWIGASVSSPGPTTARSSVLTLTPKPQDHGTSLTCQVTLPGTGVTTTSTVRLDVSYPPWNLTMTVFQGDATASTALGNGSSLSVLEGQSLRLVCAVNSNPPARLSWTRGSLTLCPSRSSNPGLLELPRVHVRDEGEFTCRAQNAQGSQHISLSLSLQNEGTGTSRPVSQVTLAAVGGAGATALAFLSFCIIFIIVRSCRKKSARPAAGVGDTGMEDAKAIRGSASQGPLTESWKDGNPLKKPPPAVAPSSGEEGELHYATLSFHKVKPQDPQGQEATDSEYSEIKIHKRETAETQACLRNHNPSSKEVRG
T6 sequence (Q9BZZ2 20-1709): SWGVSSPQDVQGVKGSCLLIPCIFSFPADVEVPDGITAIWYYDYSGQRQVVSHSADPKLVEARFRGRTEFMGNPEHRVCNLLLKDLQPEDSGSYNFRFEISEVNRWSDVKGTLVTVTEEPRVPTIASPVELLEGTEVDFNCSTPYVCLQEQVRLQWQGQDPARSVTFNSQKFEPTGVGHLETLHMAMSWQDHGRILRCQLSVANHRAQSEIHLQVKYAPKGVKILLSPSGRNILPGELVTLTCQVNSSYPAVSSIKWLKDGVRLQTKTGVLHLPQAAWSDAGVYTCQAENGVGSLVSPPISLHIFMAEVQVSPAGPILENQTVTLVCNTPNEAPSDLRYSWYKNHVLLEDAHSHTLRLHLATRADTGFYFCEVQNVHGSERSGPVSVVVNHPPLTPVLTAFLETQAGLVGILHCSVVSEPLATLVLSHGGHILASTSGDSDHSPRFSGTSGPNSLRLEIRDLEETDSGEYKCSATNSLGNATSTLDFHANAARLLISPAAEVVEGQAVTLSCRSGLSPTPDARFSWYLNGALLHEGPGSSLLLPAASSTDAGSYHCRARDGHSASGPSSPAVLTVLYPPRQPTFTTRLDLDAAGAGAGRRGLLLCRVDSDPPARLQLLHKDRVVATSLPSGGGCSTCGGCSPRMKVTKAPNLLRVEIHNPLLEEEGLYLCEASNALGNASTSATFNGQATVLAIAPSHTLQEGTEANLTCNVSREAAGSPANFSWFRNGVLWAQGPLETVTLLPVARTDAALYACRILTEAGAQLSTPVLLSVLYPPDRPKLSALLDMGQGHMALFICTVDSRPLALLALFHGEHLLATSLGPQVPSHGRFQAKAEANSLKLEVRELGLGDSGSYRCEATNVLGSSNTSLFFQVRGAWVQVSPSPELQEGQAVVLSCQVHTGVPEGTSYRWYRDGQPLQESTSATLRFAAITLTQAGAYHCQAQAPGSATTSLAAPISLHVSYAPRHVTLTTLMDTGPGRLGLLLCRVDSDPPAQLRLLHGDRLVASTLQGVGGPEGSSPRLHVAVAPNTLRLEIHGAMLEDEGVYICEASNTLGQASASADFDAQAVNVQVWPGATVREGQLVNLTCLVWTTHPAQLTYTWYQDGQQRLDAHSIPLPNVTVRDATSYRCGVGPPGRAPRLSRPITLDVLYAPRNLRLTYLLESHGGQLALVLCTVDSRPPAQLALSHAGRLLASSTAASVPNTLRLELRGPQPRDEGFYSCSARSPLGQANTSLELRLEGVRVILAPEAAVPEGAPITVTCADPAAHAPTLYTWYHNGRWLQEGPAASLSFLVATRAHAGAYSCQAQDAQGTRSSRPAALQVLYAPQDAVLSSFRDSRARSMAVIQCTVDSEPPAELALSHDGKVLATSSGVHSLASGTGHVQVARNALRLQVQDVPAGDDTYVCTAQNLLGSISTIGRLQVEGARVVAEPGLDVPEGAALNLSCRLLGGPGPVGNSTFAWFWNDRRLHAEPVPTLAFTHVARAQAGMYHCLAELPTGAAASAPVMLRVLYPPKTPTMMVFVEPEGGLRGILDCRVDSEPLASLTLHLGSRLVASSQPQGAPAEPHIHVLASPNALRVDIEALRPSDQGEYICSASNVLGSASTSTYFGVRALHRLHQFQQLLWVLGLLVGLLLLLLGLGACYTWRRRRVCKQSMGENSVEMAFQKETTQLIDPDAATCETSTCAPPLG

Row | Molecule | log10(MFI AF647) of GLL relative to log10(MFI AF647) of the same GLL against UT CHO cells (Fig. 2a) (CD33 WT CHO cells) | log10(MFI AF647) of GLL relative to log10(MFI AF647) of the same GLL against UT CHO cells (Fig. 2a) (Siglec-8 WT CHO cells) | log10(MFI AF647) of GLL relative to log10(MFI AF647) of the same GLL against UT CHO cells (Fig. 2a) [2] | log10(MFI AF647) of GLL relative to log10(MFI AF647) of the same GLL against UT CHO cells (Fig. 2a) [3] | log10(MFI AF647) of GLL relative to log10(MFI AF647) of the same GLL against UT CHO cells (Fig. 2a) (CD33 R119A CHO cells) | log10(MFI AF647) of GLL relative to log10(MFI AF647) of the same GLL against UT CHO cells (Fig. 2a) ([1]; UT) | Binding of liposomes with increasing ganglioside content against Siglec-1 CHO cells (Fig. 1c) (WT Siglec-1 CHO cells; 0.0187 Ligand/nm2) | Binding of liposomes with increasing ganglioside content against Siglec-1 CHO cells (Fig. 1c) (WT Siglec-1 CHO cells; 0.0933 Ligand/nm2) | Binding of liposomes with increasing ganglioside content against Siglec-1 CHO cells (Fig. 1c) (WT Siglec-1 CHO cells; 0.187 Ligand/nm2) | Binding of liposomes with increasing ganglioside content against Siglec-1 CHO cells (Fig. 1c) (WT Siglec-1 CHO cells; 0.373 Ligand/nm2) | log10(MFI AF647) of GLL relative to log10(MFI AF647) of the same GLL against UT CHO cells (Fig. 2a) (WT Siglec-1 CHO cells) | ganglioside content threshold above which GLL binding to Siglec-1 CHO cells decreased (WT Siglec-1 CHO cells) | further results
1 | CCCCCCCCCCCCCCCCOCC(COCCCCCCCCCCCCCCCC)OCc1cn(CCO[C@@H]2O[C@H](CO)[C@@H](O[C@@H]3O[C@H](CO)[C@H](O)[C@H](O[C@]4(C(=O)O)C[C@H](O)[C@@H](NC(C)=O)[C@H]([C@H](O)[C@H](O)CO)O4)[C@H]3O)[C@H](O)[C@H]2O)nn1 [GM3-DAG] |  |  |  |  |  |  |  |  |  |  |  |  | liposome binding, fluorescence signal (replicates) ([1]; sheet Figure S22b, CHO): 267 and 269 and 241 and 218; liposome binding, fluorescence signal (replicates) ([1]; sheet Figure S26a, 3% GM3-DAG liposomes, Untrans.): 298 and 293 and 301 and 291; liposome binding, fluorescence signal (replicates) ([1]; sheet Figure S28b, 3% GM3-DAG liposomes, UT): 268 and 273 and 248 and 260; liposome binding, fluorescence signal (replicates) ([1]; sheet Figure S26d, CHO): 38 and 35 and 41
2 | GD1a | -0.09 and -0.06 and -0.03 and 0.01 | -0.17 and -0.14 and -0.12 and -0.13 | 0.11 and 0.12 and 0.1 (2×) | -0.11 and -0.13 and -0.12 (2×) | 0 (2×) and -0.03 and -0.02 | 0.01 and -0.05 and 0 and 0.04 | 0.5 and 0.49 and 0.48 and 0.51 | 0.26 (2×) and 0.28 and 0.3 | 0.19 (3×) and 0.2 | 0.1 (2×) and 0.09 (2×) | 0.86 (2×) and 0.89 and 0.85 | 1–3 mol% | Binding of liposomes with increasing ganglioside content against Siglec-1 CHO cells (Fig. 1c) (WT Siglec-1 CHO cells; 0.000187 Ligand/nm2): -0.01; Binding of liposomes with increasing ganglioside content against Siglec-1 CHO cells (Fig. 1c) (WT Siglec-1 CHO cells; 0.00933 Ligand/nm2): 0.01
3 | GD1b | -0.13 and -0.1 (2×) and -0.07 | -0.17 (2×) and -0.15 (2×) | -0.02 and -0.04 and -0.01 and 0 | -0.11 (2×) and -0.12 (2×) | -0.06 and -0.07 and -0.04 and -0.05 | 0.01 (2×) and -0.01 (2×) |  |  |  |  | 0.7 and 0.71 (2×) and 0.63 |  | 
4 | GD3 | -0.03 (2×) and -0.01 and 0 | -0.11 and -0.06 and -0.09 and -0.01 | 0.12 (2×) and 0.09 and 0.1 | -0.1 and -0.11 and -0.12 (2×) | 0 (2×) and 0.03 (2×) | 0.01 (2×) and -0.01 (2×) |  |  |  |  | 0.41 (3×) and 0.45 |  | 
5 | GM1 | -0.29 and -0.27 and -0.21 and -0.16 | -0.02 (3×) and 0.04 | -0.02 and 0.03 and 0.04 and 0.09 | 0.1 and 0.05 and 0.07 and 0.13 | -0.15 and -0.13 and -0.21 (2×) | 0.07 and -0.03 (2×) and -0.01 | 0.02 | 0.26 and 0.25 and 0.27 and 0.28 | 0.19 and 0.18 (2×) and 0.16 | 0.08 (3×) and 0.07 | 0.34 and 0.29 and 0.27 and 0.31 | 1–3 mol% | Binding of liposomes with increasing ganglioside content against Siglec-1 CHO cells (Fig. 1c) (WT Siglec-1 CHO cells; 0.0373 Ligand/nm2): 0.13 (2×) and 0.12 (2×); Binding of liposomes with increasing ganglioside content against Siglec-1 CHO cells (Fig. 1c) (WT Siglec-1 CHO cells; 0.056 Ligand/nm2): 0.26 and 0.28 and 0.27 (2×); Liposome binding to Siglec-1-expressing CHO cells in the cell assay (Fig. 1f) (WT Siglec-1 CHO cells; 3% glycolipid in liposome): 926 and 882 and 896; GM1 liposome binding to Siglec-1 CHO cells, flow cytometry (Fig. 1b) (WT Siglec-1 CHO cells; 0.2 mol% PEG45–DSPE): 1640 and 1691 and 1719 and 1798; GM1 liposome binding to Siglec-1 CHO cells, flow cytometry (Fig. 1b) (WT Siglec-1 CHO cells; 0.5 mol% PEG45–DSPE): 1529 and 1675 and 1687 and 1576 and 1551; GM1 liposome binding to Siglec-1 CHO cells, flow cytometry (Fig. 1b) (WT Siglec-1 CHO cells; 1 mol% PEG45–DSPE): 687 and 675 and 684 and 712 and 741; GM1 liposome binding to Siglec-1 CHO cells, flow cytometry (Fig. 1b) (WT Siglec-1 CHO cells; 2 mol% PEG45–DSPE): 106 and 105 and 107 and 111 and 113; GM1 liposome binding to Siglec-1 CHO cells, flow cytometry (Fig. 1b) (WT Siglec-1 CHO cells; 5 mol% PEG45–DSPE): 79 and 80 and 82 and 81; Liposome binding to Siglec-1-expressing CHO cells in the cell assay (Fig. 1f) (WT Siglec-1 CHO cells; 20% glycolipid in liposome): 316 and 299 and 296; binding to WT Siglec-1 CHO cells (in words) (WT Siglec-1 CHO cells; cell assay): No differences in binding
